# From paper PMC9780499, “Designing double-site lipidated peptide amphiphiles as potent antimicrobial biomaterials to combat multidrug-resistant bacteria” (Frontiers in Microbiology, 2022)
# Where two headings read alike, the source gives them in different places. Ends that are not written are not given here. Peptide text beside a SMILES is read from it. * marks the point of attachment. Decanoyl = CCCCCCCCCC(=O)*
# Tests used:
# [1] = tested on: E. coli HP73; assay: microbe, parasite or virus in culture; type: cell-based, Escherichia coli; settings: read-out: MICs, E. coli HP73
# Source text: (§1) Escherichia coli ATCC25922, E. coli UB1005, Pseudomonas aeruginosa ATCC27853, Salmonella typhimurium ATCC14028, S. typhimurium C7731, Staphylococcus aureus ATCC29213, Methicillin-resistant S. aureus (MRSA) ATCC43300, S. epidermidis ATCC12228, and Enterococcus faecalis ATCC29212 were stored by the institute of animal nutrition, Northeast Agricultural University (Harbin, China). Multidrug-Resistant E. coli HP73 and E. coli HP74 were clinically isolated from swine-derived Escherichia coli and stored by the institute of animal nutrition, Northeast Agricultural University (Harbin, China).
# (§2) The MICs were determined using a broth microdilution method with reference to Clinical and Laboratory Standards Institute (CLSI) guidelines ([Wiegand et al., 2008]). After a two-fold serial dilution of the peptides (50 μl, dilution buffer: 0.01% acetic acid containing 0.2% BSA) prepared in a 96-well plate, a series of an equal volume of bacterial solution (50 μl) prepared in Mueller-Hinton broth (MHB) were added to the same 96-well plate, and the final bacterial inoculum size in each well of the 96-well plate was approximately 5 × 10^5 CFU/ml. As positive and negative controls, bacteria solution without peptides and blank samples without bacteria were prepared in the same 96-well plate. […] The lowest peptide concentration at which there was no increase in optical density was referred to as the MIC.
# [2] = tested on: E. coli HP74; assay: microbe, parasite or virus in culture; type: cell-based, Escherichia coli; settings: read-out: MICs, E. coli HP74
# Source text: as §1, §2
# [3] = tested on: S. epidermidis 12228; type: cell-based; settings: 12228, 20 h
# Source text: as §1, §2
# [4] = tested on: S. aureus 29213; type: cell-based, Staphylococcus aureus; settings: 29213, 20 h
# Source text: as §1, §2
# [5] = tested on: E. faecalis 29212; type: cell-based, Enterococcus faecalis; settings: 29212, 20 h
# Source text: as §1, §2
# [6] = tested on: 9 bacterial strains; assay: Geometric mean MIC over the 9 bacterial strains; type: cell-based; settings: geometric mean of the 9 strains of Table 1
# Experimental: as §2
# [7] = tested on: IPEC-J2; assay: MTT cytotoxicity assay; type: cell-based, porcine; settings: 1 day incubation; for Cytotoxicity toward IPEC-J2: at the test concentrations
# Experimental: (§3) 3-(4,5-dimethylthiozol-2-yl)-2,5-diphenyltetrazolium bromide (MTT) assay and live/dead cell staining assay were conducted to assess the peptide cytotoxicity. For the MTT assay, cell lines were seeded and passaged twice in high-glucose Dulbecco’s modified Eagle’s medium (DMEM, containing 100 μg/ml streptomycin, 100 U/ml penicillin, and 10% vol/vol fetal bovine serum) or Dulbecco’s Modified Eagle Medium/Nutrient Mixture F-12 (DMEM/F-12, containing 100 μg/ml streptomycin, 100 U/ml penicillin, and 10% vol/vol fetal bovine serum) at a 5% CO2 incubator (37°C). The cells (approximately 50,000 cells per well) were cultured in a 96-well plate at a 5% CO2 incubator for 1 day. Then various concentrations of peptide solutions (50 μl) were added to the plate and incubated for another 1 day. The cells solution without peptides and blank samples without cells and peptides were prepared in the same 96-well plate as positive and negative controls, respectively. Subsequently, MTT (0.5 mg/ml, 20 μl per well) was added and the plate was incubated for another 4 h. Removed all supernatant from the plate and added 150 μl of dimethyl sulfoxide. Finally, a microplate reader (Tecan GENios F129004, Austria) was used to record the absorbance data at OD570 nm. Melittin was employed as a control peptide. The cell viability was calculated using the previously described equation ([Lai et al., 2021]).
# [8] = tested on: MRSA 43300; type: cell-based, Methicillin-resistant S. aureus; settings: 43300, 20 h
# Source text: as §1, §2
# [9] = tested on: P. aeruginosa 27853; type: cell-based, Pseudomonas aeruginosa; settings: 27853, 20 h
# Source text: as §1, §2
# [10] = tested on: HEK293T; assay: MTT cytotoxicity assay; type: cell-based, human; settings: 1 day incubation; for Cytotoxicity toward HEK293T: at the test concentrations
# Experimental: as §3
# [11] = tested on: E. coli 25922; type: cell-based, Escherichia coli; settings: 25922, 20 h
# Source text: as §1, §2
# [12] = tested on: E. coli UB1005; type: cell-based, Escherichia coli; settings: UB1005, 20 h
# Source text: as §1, §2
# [13] = tested on: S. typhimurium C7731; type: cell-based, Salmonella typhimurium; settings: C7731, 20 h
# Source text: as §1, §2
# [14] = tested on: S. typhimurium 14028; type: cell-based, Salmonella typhimurium; settings: 14028, 20 h
# Source text: as §1, §2
# [15] = multidrug-resistant, colistin-resistant swine clinical isolate, broth microdilution, MHB, 37°C 20 h
# [16] = Escherichia coli, HP73, multidrug-resistant, colistin-resistant swine clinical isolate, broth microdilution, MHB, 37°C 20 h
# [17] = Escherichia coli, HP74, multidrug-resistant, colistin-resistant swine clinical isolate, broth microdilution, MHB, 37°C 20 h
compound,measurement,setting,value
Kanamycin A,MIC,[1]; [15],>128 µM
same,MIC,[2]; [15],>128 µM
CNC(C)C1CCC(N)C(OC2C(N)CC(N)C(OC3OCC(C)(O)C(NC)C3O)C2O)O1 (stereo not shown) [Gentamicin],MIC,[1]; [16],128 µM
same,MIC,[2]; [17],128 µM
WLKKLKKKLKKLKKK [WL],"MICs, S. epidermidis 12228",[3],128 µM
same,"MICs, S. aureus 29213",[4],128 µM
same,"MICs, E. faecalis 29212",[5],>128 µM
same,"GM, geometric mean MICs from the 9 bacterial strains",[6],64.00 µM
same,Cytotoxicity toward IPEC-J2,[7],no significant cytotoxicity
same,"MICs, MRSA 43300",[8],128 µM
same,"MICs, P. aeruginosa 27853",[9],32 µM
same,Cytotoxicity toward HEK293T,[10],no significant cytotoxicity
same,"MICs, E. coli 25922",[11],32 µM
same,"MICs, E. coli UB1005",[12],32 µM
same,"MICs, S. typhimurium C7731",[13],32 µM
same,"MICs, S. typhimurium 14028",[14],32 µM
CC[C@H]1OC(=O)[C@H](C)[C@@H](O[C@H]2C[C@@](C)(OC)[C@@H](O)[C@H](C)O2)[C@H](C)[C@@H](O[C@@H]2O[C@H](C)C[C@H](N(C)C)[C@H]2O)[C@](C)(O)C[C@@H](C)C(=O)[C@H](C)[C@@H](O)[C@]1(C)O [Erythromycin],MIC,[1]; [16],> 128 µM
same,MIC,[2]; [17],> 128 µM
CC(C)(O/N=C(\C(=O)N[C@@H]1C(=O)N2C(C(=O)[O-])=C(C[n+]3ccccc3)CS[C@H]12)c1csc(N)n1)C(=O)O [Ceftazidime],MIC,[1]; [16],128 µM
same,MIC,[2]; [17],32 µM
CCCCCCCCCC(=O)NCCCC[C@H](NC(=O)[C@H](CC(C)C)NC(=O)[C@H](CCCCN)NC(=O)[C@H](CCCCN)NC(=O)[C@H](CC(C)C)NC(=O)[C@H](CCCCNC(=O)CCCCCCCCC)NC(=O)[C@H](CCCCN)NC(=O)[C@H](CCCCN)NC(=O)[C@H](CC(C)C)NC(=O)[C@H](CCCCN)NC(=O)[C@H](CCCCN)NC(=O)[C@H](CC(C)C)NC(=O)[C@@H](N)Cc1c[nH]c2ccccc12)C(=O)N[C@@H](CCCCN)C(=O)N[C@@H](CCCCN)C(=O)O [WL-C10] (H-WLKKLKKK(Decanoyl)LKKLK(Decanoyl)KK-OH),"MICs, S. epidermidis 12228",[3],>128 µM
same,"MICs, S. aureus 29213",[4],>128 µM
same,"MICs, E. faecalis 29212",[5],>128 µM
same,"GM, geometric mean MICs from the 9 bacterial strains",[6],94.06 µM
same,Concentration above which significant cytotoxicity toward IPEC-J2,[7],greater than 32 μM
same,"MICs, MRSA 43300",[8],>128 µM
same,"MICs, P. aeruginosa 27853",[9],>128 µM
same,Concentration above which significant cytotoxicity toward HEK293T,[10],greater than 32 μM
same,"MICs, E. coli 25922",[11],>64 µM
same,"MICs, E. coli UB1005",[12],16 µM
same,"MICs, S. typhimurium C7731",[13],>128 µM
same,"MICs, S. typhimurium 14028",[14],>128 µM
CCn1cc(C(=O)O)c(=O)c2cc(F)c(N3CCNCC3)cc21 [Norfloxacin],MIC,[1]; [16],> 128 µM
same,MIC,[2]; [17],128 µM
CC1COc2c(N3CCN(C)CC3)c(F)cc3c(=O)c(C(=O)O)cn1c23 (stereo not shown) [Ofloxacin],MIC,[1]; [16],> 128 µM
same,MIC,[2]; [17],> 128 µM
Polymyxin B,MIC,[1]; [15],8 µM
same,MIC,[2]; [15],4 µM
Colistin,MIC,[1]; [15],4 µM
same,MIC,[2]; [15],4 µM
WLKKLKKK(Ac)LKKLK(Ac)KK [WL-C2],"MICs, S. epidermidis 12228",[3],64 µM
same,"MICs, S. aureus 29213",[4],64 µM
same,"MICs, E. faecalis 29212",[5],128 µM
same,"GM, geometric mean MICs from the 9 bacterial strains",[6],27.43 µM
same,Cytotoxicity toward IPEC-J2,[7],no significant cytotoxicity
same,"MICs, MRSA 43300",[8],64 µM
same,"MICs, P. aeruginosa 27853",[9],16 µM
same,Cytotoxicity toward HEK293T,[10],no significant cytotoxicity
same,"MICs, E. coli 25922",[11],8 µM
same,"MICs, E. coli UB1005",[12],8 µM
same,"MICs, S. typhimurium C7731",[13],16 µM
same,"MICs, S. typhimurium 14028",[14],16 µM
"CC[C@H](C)[C@H](NC(=O)CN)C(=O)NCC(=O)N[C@@H](C)C(=O)N[C@H](C(=O)N[C@@H](CC(C)C)C(=O)N[C@@H](CCCCN)C(=O)N[C@H](C(=O)N[C@@H](CC(C)C)C(=O)N[C@H](C(=O)N[C@H](C(=O)NCC(=O)N[C@@H](CC(C)C)C(=O)N1CCC[C@H]1C(=O)N[C@@H](C)C(=O)N[C@@H](CC(C)C)C(=O)N[C@H](C(=O)N[C@@H](CO)C(=O)N[C@@H](Cc1c[nH]c2ccccc12)C(=O)N[C@H](C(=O)N[C@@H](CCCCN)C(=O)N[C@@H](CCCNC(=N)N)C(=O)N[C@@H](CCCCN)C(=O)N[C@@H](CCCNC(=N)N)C(=O)N[C@@H](CCC(N)=O)C(=O)N[C@@H](CCC(N)=O)C(N)=O)[C@@H](C)CC)[C@@H](C)CC)[C@@H](C)O)[C@@H](C)O)C(C)C)C(C)C [Melittin, reference compound]",Concentration above which significant cytotoxicity toward IPEC-J2,[7],> 16 µM
same,Concentration above which significant cytotoxicity toward HEK293T,[10],greater than 8 μM
CN[C@H](CC(C)C)C(=O)N[C@H]1C(=O)N[C@@H](CC(N)=O)C(=O)N[C@H]2C(=O)N[C@H]3C(=O)N[C@H](C(=O)N[C@H](C(=O)O)c4cc(O)cc(O)c4-c4cc3ccc4O)[C@H](O)c3ccc(c(Cl)c3)Oc3cc2cc(c3O[C@@H]2O[C@H](CO)[C@@H](O)[C@H](O)[C@H]2O[C@H]2C[C@](C)(N)[C@H](O)[C@H](C)O2)Oc2ccc(cc2Cl)[C@H]1O [Vancomycin],MIC,"[1]; Escherichia coli, HP73, 20 h",64 µM
same,MIC,"[2]; Escherichia coli, HP74, 20 h",32 µM
CO[C@H]1/C=C/O[C@@]2(C)Oc3c(C)c(O)c4c(O)c(c(/C=N/N5CCN(C)CC5)c(O)c4c3C2=O)NC(=O)/C(C)=C\C=C\[C@H](C)[C@H](O)[C@@H](C)[C@@H](O)[C@@H](C)[C@H](OC(C)=O)[C@@H]1C [Rifampicin],MIC,[1]; [16],> 128 µM
same,MIC,[2]; [17],16 µM
